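Where inhibition never reached the appropriate level, the endpoint shown equals the highest concentration tested. Otherwise, values were interpolated linearly from a five-concentration, 48-hour dose response in 96-well plates. GI50 marks 50% less growth.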 Activity calls are given as the source filed them. Cut-off read from the data, not from the text of the source: active = GI50 up to about 1.1 µM and inactive = higher.
What was measured:
Test in all cases: growth of human tumour cells (NCI), 48 h
786-0 = tested on: 786-0
DU-145 = tested on: DU-145
HCT-116 = tested on: HCT-116
HL-60 = tested on: HL-60
IGROV-1 = tested on: IGROV-1
K562 = tested on: K562
KM12 = tested on: KM12
M14 = tested on: M14
MCF7 = tested on: MCF7
MOLT-4 = tested on: MOLT-4
OVCAR-3 = tested on: OVCAR-3
OVCAR-4 = tested on: OVCAR-4
OVCAR-8 = tested on: OVCAR-8
RPMI-8226 = tested on: RPMI-8226
SK-MEL-28 = tested on: SK-MEL-28
SK-MEL-5 = tested on: SK-MEL-5
SN12C = tested on: SN12C
UO-31 = tested on: UO-31
A498 = tested on: A498

Measured: GI50

Cn1c2ccccc2c(=NNc2ccc(S(N)(=O)=O)cc2)c2ccccc21
inactive: 786-0 21 µM | DU-145 21.6 µM | HCT-116 16.7 µM | HL-60 2.7 µM | IGROV-1 17.7 µM | K562 2.49 µM | KM12 11.2 µM | M14 24 µM | MCF7 13.6 µM | MOLT-4 3.95 µM | OVCAR-3 19.5 µM | OVCAR-4 14.3 µM | OVCAR-8 16.2 µM | RPMI-8226 9.35 µM | SK-MEL-28 18.6 µM | SK-MEL-5 8.24 µM | SN12C 18.4 µM | UO-31 10.7 µM

Cc1ccc(/C=C2\N=C(N3CCOCC3)NC2=O)cc1
inactive: 786-0 > 100 µM | DU-145 > 100 µM | HCT-116 > 100 µM | HL-60 > 100 µM | IGROV-1 > 100 µM | KM12 > 100 µM | M14 > 100 µM | MCF7 > 100 µM | MOLT-4 > 100 µM | OVCAR-3 > 100 µM | OVCAR-4 > 100 µM | OVCAR-8 > 100 µM | RPMI-8226 > 100 µM | SK-MEL-28 > 100 µM | SN12C > 100 µM | UO-31 > 100 µM

C=CCCC(CCC=C)(C(=O)O)C(=O)O
inactive: 786-0 > 100 µM | DU-145 > 100 µM | HCT-116 > 100 µM | HL-60 > 100 µM | IGROV-1 > 100 µM | K562 > 100 µM | KM12 > 100 µM | M14 > 100 µM | MCF7 > 100 µM | MOLT-4 > 100 µM | OVCAR-3 > 100 µM | OVCAR-8 > 100 µM | RPMI-8226 > 100 µM | SK-MEL-28 > 100 µM | SK-MEL-5 > 100 µM | SN12C > 100 µM | UO-31 > 100 µM

CN(CCCCN)c1ccc2c(=O)[nH][nH]c(=O)c2c1
inactive: 786-0 > 100 µM | A498 > 100 µM | HCT-116 > 100 µM | HL-60 > 100 µM | IGROV-1 > 44.9 µM | K562 > 100 µM | KM12 > 100 µM | M14 13.5 µM | MOLT-4 > 100 µM | OVCAR-3 > 100 µM | OVCAR-4 > 100 µM | OVCAR-8 > 10 µM | RPMI-8226 > 100 µM | SK-MEL-28 > 100 µM | SK-MEL-5 > 10 µM | SN12C > 100 µM | UO-31 > 100 µM

CNC(=S)N/N=C/c1ccc([N+](=O)[O-])s1
inactive: 786-0 > 10 µM | A498 > 10 µM | DU-145 > 10 µM | HCT-116 5.48 µM | HL-60 6.44 µM | IGROV-1 > 10 µM | K562 > 10 µM | KM12 3.99 µM | M14 > 10 µM | MOLT-4 > 10 µM | OVCAR-3 2.23 µM | OVCAR-4 > 10 µM | OVCAR-8 7.26 µM | RPMI-8226 > 10 µM | SK-MEL-28 > 10 µM | SK-MEL-5 > 10 µM | SN12C > 10 µM | UO-31 > 10 µM

O=C1CCCCCCCCCCC1CN1CCOCC1 (stereo unspecified)
inactive: 786-0 > 100 µM | DU-145 > 100 µM | HCT-116 > 100 µM | HL-60 > 100 µM | IGROV-1 > 100 µM | K562 > 100 µM | KM12 > 100 µM | M14 > 100 µM | MCF7 > 100 µM | MOLT-4 66.1 µM | OVCAR-3 > 100 µM | OVCAR-4 > 100 µM | OVCAR-8 > 100 µM | RPMI-8226 > 100 µM | SK-MEL-28 > 100 µM | SK-MEL-5 13.9 µM | SN12C > 100 µM | UO-31 > 100 µM

N#CC(NC12CC3CC(CC(C3)C1)C2)c1ccc2c(c1)OCO2 (stereo unspecified)
inactive: 786-0 > 100 µM | DU-145 > 100 µM | HCT-116 > 100 µM | HL-60 > 100 µM | IGROV-1 > 100 µM | K562 > 100 µM | KM12 > 100 µM | M14 > 100 µM | MCF7 > 100 µM | MOLT-4 > 100 µM | OVCAR-3 > 100 µM | OVCAR-4 > 100 µM | OVCAR-8 > 100 µM | RPMI-8226 > 100 µM | SK-MEL-28 > 100 µM | SK-MEL-5 > 100 µM | SN12C > 100 µM | UO-31 > 100 µM

N#CCc1nc(-c2cc3c(ccc4ccccc43)oc2=O)cs1
inactive: 786-0 22.2 µM | DU-145 23.9 µM | HCT-116 54.3 µM | HL-60 > 100 µM | IGROV-1 15.2 µM | K562 > 100 µM | KM12 33.6 µM | M14 99.1 µM | MCF7 38.3 µM | MOLT-4 > 100 µM | OVCAR-4 24.3 µM | OVCAR-8 28.5 µM | RPMI-8226 > 100 µM | SK-MEL-28 72.6 µM | SK-MEL-5 69.3 µM | SN12C 57.8 µM | UO-31 38.9 µM

NNC(=O)c1ccc(-n2nnc(C(=O)NN)c2C(=O)NN)cc1
inactive: 786-0 > 100 µM | DU-145 > 100 µM | HCT-116 > 100 µM | HL-60 > 100 µM | K562 > 100 µM | KM12 > 100 µM | M14 > 100 µM | MCF7 > 100 µM | MOLT-4 > 100 µM | OVCAR-3 > 100 µM | OVCAR-4 > 100 µM | OVCAR-8 > 100 µM | RPMI-8226 > 100 µM | SK-MEL-28 > 100 µM | SK-MEL-5 > 100 µM | SN12C > 100 µM | UO-31 > 100 µM

CC(=O)CSc1c(-c2ccccc2)c(=O)n(-c2ccccc2)c(=S)n1-c1ccccc1
inactive: 786-0 > 100 µM | DU-145 > 100 µM | HCT-116 > 100 µM | HL-60 > 100 µM | IGROV-1 > 100 µM | K562 > 100 µM | KM12 > 100 µM | M14 > 100 µM | MCF7 > 100 µM | MOLT-4 47.4 µM | OVCAR-3 > 100 µM | OVCAR-4 > 100 µM | OVCAR-8 > 100 µM | RPMI-8226 > 100 µM | SK-MEL-28 > 100 µM | SK-MEL-5 > 100 µM | SN12C > 100 µM | UO-31 > 100 µM

CC[C@]1(Cc2ccc(OC)c(OC)c2)C=[N+]([O-])O[C@H](OC2CCCC2(c2ccccc2)c2ccccc2)[C@@H]1OC(=O)c1ccccc1 (stereo partly specified)
inactive: 786-0 6.75 µM | DU-145 10.6 µM | HCT-116 4.51 µM | HL-60 3.21 µM | IGROV-1 3.67 µM | K562 3.94 µM | KM12 3.9 µM | M14 8.13 µM | MCF7 3.38 µM | MOLT-4 2.63 µM | OVCAR-3 3.15 µM | OVCAR-4 7.38 µM | OVCAR-8 3.71 µM | SK-MEL-28 20.8 µM | SK-MEL-5 4.37 µM | SN12C > 21.2 µM | UO-31 6.7 µM

O=C1NC(N2CCCCC2)=N/C1=C\c1ccco1
inactive: 786-0 > 100 µM | DU-145 > 100 µM | HCT-116 > 100 µM | HL-60 > 100 µM | IGROV-1 54.7 µM | KM12 > 100 µM | M14 > 100 µM | MCF7 > 100 µM | MOLT-4 > 100 µM | OVCAR-3 > 100 µM | OVCAR-4 > 100 µM | OVCAR-8 > 100 µM | RPMI-8226 > 100 µM | SK-MEL-28 > 100 µM | SK-MEL-5 > 100 µM | SN12C > 100 µM | UO-31 > 100 µM

NNC(=O)Cn1ccnn1
inactive: 786-0 > 100 µM | DU-145 > 100 µM | HL-60 > 100 µM | IGROV-1 > 100 µM | K562 > 100 µM | KM12 > 100 µM | M14 > 100 µM | MCF7 > 100 µM | MOLT-4 > 100 µM | OVCAR-8 > 100 µM | RPMI-8226 > 100 µM | SK-MEL-28 > 100 µM | SK-MEL-5 > 100 µM | SN12C > 100 µM

Cc1cc(/N=C/c2ccc(C#N)cc2)n(-c2ccccc2)n1
inactive: 786-0 80.5 µM | DU-145 > 100 µM | HCT-116 49.1 µM | HL-60 20.1 µM | IGROV-1 68.9 µM | K562 26.5 µM | KM12 56.1 µM | M14 55.7 µM | MCF7 41.1 µM | MOLT-4 42.6 µM | OVCAR-3 38.9 µM | OVCAR-4 > 100 µM | OVCAR-8 69 µM | RPMI-8226 26.2 µM | SK-MEL-28 > 100 µM | SK-MEL-5 36 µM | SN12C 82.2 µM | UO-31 > 100 µM

Nc1ccccc1Nc1ccccc1C(=O)[O-].Nc1ccccc1Nc1ccccc1C(=O)[O-].[Zn+2]
inactive: 786-0 > 100 µM | A498 > 100 µM | HCT-116 > 100 µM | IGROV-1 40.6 µM | K562 62.4 µM | KM12 > 100 µM | M14 51.4 µM | MOLT-4 > 100 µM | OVCAR-3 23.4 µM | OVCAR-8 > 100 µM | RPMI-8226 > 100 µM | SK-MEL-28 > 100 µM | SK-MEL-5 91.4 µM | SN12C > 100 µM | UO-31 > 100 µM

C[C@]1(CO)CCC[C@@]2(C)C1CC[C@H]1CC3C[C@]12CC[C@]3(C)O (stereo partly specified)
inactive: 786-0 > 100 µM | HCT-116 49.8 µM | HL-60 5.22 µM | IGROV-1 > 10 µM | K562 11.5 µM | KM12 > 100 µM | M14 > 100 µM | MOLT-4 2.77 µM | OVCAR-3 > 100 µM | OVCAR-4 46.1 µM | OVCAR-8 > 100 µM | RPMI-8226 17.3 µM | SK-MEL-28 > 100 µM | SK-MEL-5 17.9 µM | SN12C > 100 µM | UO-31 > 10 µM
